Measurements reported in paper PMC4150738 (Analytica chimica acta, 2014).
Like-named read-outs stand apart in the source and are kept apart here.

Columns and labels:
[1] = Short-term stability in fortified plasma; type: physicochemical, human
[2] = for change of plasma concentration without the deconjugation step (hydrolysis): rat plasma after 0.5 mg kg-1 MDPV ip or sc, with vs without hydrolysis; for plasma concentration, Without hydrolysis / plasma concentration, Hydrolysis / plasma concentration range after intraperitoneal dosing / plasma concentration range after the subcutaneous dose: rat plasma; for plasma concentration, Without hydrolysis / plasma concentration, Hydrolysis: LOQ 0.25 μg L^−1; for plasma concentration, Hydrolysis: with hydrolysis; for plasma concentration range after intraperitoneal dosing: 0.5 mg kg^−1 MDPV intraperitoneal; for plasma concentration range after intraperitoneal dosing / plasma concentration range after the subcutaneous dose: samples 10-480 min after dosing; for plasma concentration range after the subcutaneous dose: 0.5 mg kg^−1 MDPV subcutaneous
[3] = 1,000 μg L^−1, room temp, 4°C and −20°C for 1 to 14 days; ref 29 (Johnson et al); cited from earlier work
[4] = system: monoamine transporter; conditions: in vitro transporter assays, similar to cocaine; ref 13 (Baumann et al.); cited from earlier work
[5] = ref 24 (Wang et al), cited from earlier work
[6] = cited from earlier work
[7] = ref 24 (Wang et al); cited from earlier work
[8] = High QC 750 μg L^−1, n=5, vs freshly fortified
[9] = Low QC 0.75 μg L^−1, n=5, vs freshly fortified
[10] = Medium QC 25 μg L^−1, n=5, vs freshly fortified
[11] = 0.5 mg kg-1 MDPV ip, 0 min (before dosing)
[12] = 0.5 mg kg-1 MDPV sc, 0 min (before dosing)

Compound: CCCC(C(=O)c1ccc(O)c(OC)c1)N1CCCC1 (centres unmarked) [4-OH-3-MeO-PV, 4-hydroxy-3-methoxypyrovalerone]
- Stability (% difference) 3 freeze-thaw cycles [1, 8]: −0.5 % difference
- Stability (% difference) 72h at 4°C [1, 8]: −1.5 % difference
- Stability (% difference) 3 freeze-thaw cycles [1, 9]: 3.5 % difference
- Stability (% difference) 72h at 4°C [1, 9]: 3.9 % difference
- Stability (% difference) 3 freeze-thaw cycles [1, 10]: −0.5 % difference
- Stability (% difference) 72h at 4°C [1, 10]: 6 % difference
- change of plasma concentration without the deconjugation step (hydrolysis) [2]: greatly decreased
- form present in rat plasma ([2]; rat plasma after MDPV, concluded from hydrolysis comparison): primarily present as the conjugated forms
- plasma concentration, Without hydrolysis [2, 11]: <LOQ
- plasma concentration, Hydrolysis ([2]; 0.5 mg kg-1 MDPV ip, 10 min): 9.3 µg/L
- plasma concentration, Without hydrolysis ([2]; 0.5 mg kg-1 MDPV ip, 10 min): 0.9 µg/L
- plasma concentration, Hydrolysis ([2]; 0.5 mg kg-1 MDPV ip, 20 min): 11.8 µg/L
- plasma concentration, Without hydrolysis ([2]; 0.5 mg kg-1 MDPV ip, 20 min): 0.7 µg/L
- plasma concentration, Hydrolysis ([2]; 0.5 mg kg-1 MDPV ip, 30 min): 12.3 µg/L
- plasma concentration, Without hydrolysis ([2]; 0.5 mg kg-1 MDPV ip, 30 min): 0.7 µg/L
- plasma concentration, Hydrolysis ([2]; 0.5 mg kg-1 MDPV ip, 60 min): 14.1 µg/L
- plasma concentration, Without hydrolysis ([2]; 0.5 mg kg-1 MDPV ip, 60 min): <LOQ
- plasma concentration, Hydrolysis ([2]; 0.5 mg kg-1 MDPV ip, 120 min): 68.9 µg/L
- plasma concentration, Without hydrolysis ([2]; 0.5 mg kg-1 MDPV ip, 120 min): 0.5 µg/L
- plasma concentration, Hydrolysis ([2]; 0.5 mg kg-1 MDPV ip, 240 min): 84.7 µg/L
- plasma concentration, Without hydrolysis ([2]; 0.5 mg kg-1 MDPV ip, 240 min): 0.5 µg/L
- plasma concentration, Hydrolysis ([2]; 0.5 mg kg-1 MDPV ip, 480 min): 23.6 µg/L
- plasma concentration, Without hydrolysis ([2]; 0.5 mg kg-1 MDPV ip, 480 min): <LOQ
- plasma concentration, Without hydrolysis [2, 12]: <LOQ
- plasma concentration, Hydrolysis ([2]; 0.5 mg kg-1 MDPV sc, 10 min): 3.2 µg/L
- plasma concentration, Without hydrolysis ([2]; 0.5 mg kg-1 MDPV sc, 10 min): 1.1 µg/L
- plasma concentration, Hydrolysis ([2]; 0.5 mg kg-1 MDPV sc, 20 min): 6.1 µg/L
- plasma concentration, Without hydrolysis ([2]; 0.5 mg kg-1 MDPV sc, 20 min): 1.2 µg/L
- plasma concentration, Hydrolysis ([2]; 0.5 mg kg-1 MDPV sc, 30 min): 6.7 µg/L
- plasma concentration, Without hydrolysis ([2]; 0.5 mg kg-1 MDPV sc, 30 min): 1.1 µg/L
- plasma concentration, Hydrolysis ([2]; 0.5 mg kg-1 MDPV sc, 60 min): 11 µg/L
- plasma concentration, Without hydrolysis ([2]; 0.5 mg kg-1 MDPV sc, 60 min): 0.9 µg/L
- plasma concentration, Hydrolysis ([2]; 0.5 mg kg-1 MDPV sc, 120 min): 44.7 µg/L
- plasma concentration, Without hydrolysis ([2]; 0.5 mg kg-1 MDPV sc, 120 min): 0.7 µg/L
- plasma concentration, Hydrolysis ([2]; 0.5 mg kg-1 MDPV sc, 240 min): 54.4 µg/L
- plasma concentration, Without hydrolysis ([2]; 0.5 mg kg-1 MDPV sc, 240 min): 0.4 µg/L
- plasma concentration, Hydrolysis ([2]; 0.5 mg kg-1 MDPV sc, 480 min): 11 µg/L
- plasma concentration, Without hydrolysis ([2]; 0.5 mg kg-1 MDPV sc, 480 min): <LOQ
- plasma concentration range after intraperitoneal dosing [2]: 9.3 to 84.7 µg/L
- plasma concentration range after the subcutaneous dose [2]: 3.2 to 54.4 µg/L

Compound: CCCC(C(=O)c1ccc2c(c1)OCO2)N1CCCC1 (centres unmarked) [MDPV, 3,4-methylenedioxypyrovalerone, reference compound]
- stability in fortified plasma [3]: stable
- Stability (% difference) 3 freeze-thaw cycles [1, 8]: 1.5 % difference
- Stability (% difference) 72h at 4°C [1, 8]: 3.5 % difference
- Stability (% difference) 3 freeze-thaw cycles [1, 9]: 3.5 % difference
- Stability (% difference) 72h at 4°C [1, 9]: 7.7 % difference
- Stability (% difference) 3 freeze-thaw cycles [1, 10]: −1.1 % difference
- Stability (% difference) 72h at 4°C [1, 10]: 2.2 % difference
- monoamine transporter blockade [4]: potent monoamine transporter blocker
- stability of MDPV in plasma, time stable ([5]; at room temperature): 27 h
- stability of MDPV in plasma, time stable ([5]; at −20°C): 600 h
- stability of MDPV in plasma, freeze-thaw cycles [5]: 3 freeze-thaw cycles
- MDPV blood concentrations, human performance cases ([6]; 9 human performance cases, ref 26 (Marinetti et al.)): 6 to 368 µg/L
- MDPV blood concentrations, postmortem cases ([6]; 23 postmortem cases, ref 26 (Marinetti et al.)): 10 to 640 µg/L
- serum MDPV concentrations ([6]; Finnish drivers stopped for suspicion of driving under the influence of drugs, ref 25 (Kriikku et al.)): 20 to 8000 µg/L
- MDPV concentrations in human plasma, in most cases [6]: below 1000 μg L^−1
- change of plasma concentration without the deconjugation step (hydrolysis) [2]: did not change
- plasma concentration, Without hydrolysis [2, 11]: <LOQ
- plasma concentration, Hydrolysis ([2]; 0.5 mg kg-1 MDPV ip, 10 min): 8.0 µg/L
- plasma concentration, Without hydrolysis ([2]; 0.5 mg kg-1 MDPV ip, 10 min): 9.4 µg/L
- plasma concentration, Hydrolysis ([2]; 0.5 mg kg-1 MDPV ip, 20 min): 6.6 µg/L
- plasma concentration, Without hydrolysis ([2]; 0.5 mg kg-1 MDPV ip, 20 min): 7.2 µg/L
- plasma concentration, Hydrolysis ([2]; 0.5 mg kg-1 MDPV ip, 30 min): 7.6 µg/L
- plasma concentration, Without hydrolysis ([2]; 0.5 mg kg-1 MDPV ip, 30 min): 8.4 µg/L
- plasma concentration, Hydrolysis ([2]; 0.5 mg kg-1 MDPV ip, 60 min): 3.6 µg/L
- plasma concentration, Without hydrolysis ([2]; 0.5 mg kg-1 MDPV ip, 60 min): 2.9 µg/L
- plasma concentration, Hydrolysis ([2]; 0.5 mg kg-1 MDPV ip, 120 min): 1.8 µg/L
- plasma concentration, Without hydrolysis ([2]; 0.5 mg kg-1 MDPV ip, 120 min): 2.2 µg/L
- plasma concentration, Hydrolysis ([2]; 0.5 mg kg-1 MDPV ip, 240 min): 1.3 µg/L
- plasma concentration, Without hydrolysis ([2]; 0.5 mg kg-1 MDPV ip, 240 min): 0.6 µg/L
- plasma concentration, Hydrolysis ([2]; 0.5 mg kg-1 MDPV ip, 480 min): 0.9 µg/L
- plasma concentration, Without hydrolysis ([2]; 0.5 mg kg-1 MDPV ip, 480 min): 1.2 µg/L
- plasma concentration, Without hydrolysis [2, 12]: <LOQ
- plasma concentration, Hydrolysis ([2]; 0.5 mg kg-1 MDPV sc, 10 min): 107.5 µg/L
- plasma concentration, Without hydrolysis ([2]; 0.5 mg kg-1 MDPV sc, 10 min): 120.1 µg/L
- plasma concentration, Hydrolysis ([2]; 0.5 mg kg-1 MDPV sc, 20 min): 82.1 µg/L
- plasma concentration, Without hydrolysis ([2]; 0.5 mg kg-1 MDPV sc, 20 min): 92.9 µg/L
- plasma concentration, Hydrolysis ([2]; 0.5 mg kg-1 MDPV sc, 30 min): 51.7 µg/L
- plasma concentration, Without hydrolysis ([2]; 0.5 mg kg-1 MDPV sc, 30 min): 56.6 µg/L
- plasma concentration, Hydrolysis ([2]; 0.5 mg kg-1 MDPV sc, 60 min): 38.4 µg/L
- plasma concentration, Without hydrolysis ([2]; 0.5 mg kg-1 MDPV sc, 60 min): 34 µg/L
- plasma concentration, Hydrolysis ([2]; 0.5 mg kg-1 MDPV sc, 120 min): 9.9 µg/L
- plasma concentration, Without hydrolysis ([2]; 0.5 mg kg-1 MDPV sc, 120 min): 1.5 µg/L
- plasma concentration, Hydrolysis ([2]; 0.5 mg kg-1 MDPV sc, 240 min): 4.8 µg/L
- plasma concentration, Without hydrolysis ([2]; 0.5 mg kg-1 MDPV sc, 240 min): 3.1 µg/L
- plasma concentration, Hydrolysis ([2]; 0.5 mg kg-1 MDPV sc, 480 min): 1.7 µg/L
- plasma concentration, Without hydrolysis ([2]; 0.5 mg kg-1 MDPV sc, 480 min): 1.4 µg/L
- plasma concentration range after intraperitoneal dosing [2]: 0.9 to 8.0 µg/L
- plasma concentration range after the subcutaneous dose [2]: 1.7 to 107.5 µg/L
- concentration in plasma, horse-doping [7]: 5.8 µg/L
